Patent publication US20100305101A1, “Leptin genotype and ß-adrenergic agonists” (priority 2009, published 2010)
Counter-ions that a name gives are not always drawn.

Assays:
[1] = Feedlot trial of leptin Arg25Cys genotype x Zilpaterol Hydrochloride administration (Cactus Research); type: in vivo, cattle; conditions: for daily dry matter intake (DDMI) during ZH treatment: last 24 days on feed; for % USDA stamped quality grade Choice+Prime, effect of ZH administration: vs no ZH
Procedure: In a trial completed at a private research facility in Texas, USA (Cactus Research, Amarillo Tex.) leptin genotype was assessed for potential interaction with Zilpaterol Hydrochloride (ZH). The trial consisted of 4,279 animals and occurred from summer of 2008 and carried through to spring of 2009. The trial was conducted as a randomized complete block design with approximately 90 animals being placed into pens based on leptin genotype and randomly assigned to drug treatment with pen being the experimental unit. Treatment structure was a 3×2 factorial including three letting genotypes (CC, CT and TT) and two drug treatments (zero control and drug treatment). Pens were blocked by time, specifically arrival date of the animal to the feedlot. Each block was slaughtered on the same day, and the complete process replicated eight times resulting in eight blocks. Below is a schematic summary of the trial design.
Upon arrival into the feedlot animals were individually weighed and back fat was measured using ultrasound. These measured were also taken 65, days on feed, and then one week prior to ZH treatment and 2-3 days prior to slaughter. All cattle were slaughtered and USDA carcass data were measured. Growth data were fitted to a non-linear growth model.
Backfat was measure by ultrasound at: • 1) Arrival • 2) 65 days on feed • 3) 1 week prior to zilpaterol initiation • 4) 2-3 days prior to slaughter 8 total blocks, 6 treatment pens per block, and 4,179 head total (avg initial wt=875 lbs) Within blocks, all treatments were killed on the same day (avg days on feed=129

[2] = RH 300 mg/steer/day, ZH 6 mg/steer/day; cited from earlier work
B-AR's = conditions: swine; within the first 7 days of treatment with RH; cited from earlier work

Row | Compound | hot carcass weight (HCW) gain response to ZH administration ([1]; CC and CT genotype animals) | % empty body fat (% EBF) change when fed ZH ([1]; CC genotype animals) | marbling score, effect of ZH administration ([1]; CC genotype animals) | daily dry matter intake (DDMI) during ZH treatment ([1]; CC genotype animals) | % USDA stamped quality grade Choice+Prime, effect of ZH administration ([1]; CC genotype animals) | daily dry matter intake (DDMI) during ZH treatment ([1]; CT and TT genotype animals) | marbling score, effect of ZH administration ([1]; TT and CT genotype animals) | rib eye area (REA) gain with ZH administration ([1]; TT and CT genotype animals) | % USDA stamped quality grade Choice+Prime, effect of ZH administration ([1]; TT and CT genotype animals) | % empty body fat (% EBF) change when fed ZH ([1]; TT genotype animals) | hot carcass weight (HCW) gain response to ZH administration ([1]; TT genotype animals) | LM (Longissimus Muscle) area [2] | sheer force and toughness of the muscle tissue [2] | B-AR down-regulation in adipose tissue (B-AR's)
1 | CC(C)N[C@@H]1CCn2c(=O)[nH]c3cccc(c32)[C@H]1O (racemic) [ZH, Zilpaterol Hydrochloride] | largest response | smallest reduction | slight reduction | no change | unaffected | significant reduction | much greater reduction | 1.4 square inches | significant reductions | largest reduction | lowest response | larger | increased | –
2 | CC(CCc1ccc(O)cc1)NCC(O)c1ccc(O)cc1 (stereo not shown) [RH, Ractopamine Hydrochloride] | – | – | – | – | – | – | – | – | – | – | – | no effect | increased | ~50%
